According to patent US7629169B2, “Methods for the production of platelet-derived growth factor-responsive neural precursor cells” (Stem Cell Therapeutics Corp., priority 2004, dated 2009):

How the values were obtained:
[1] = tested on: PDGF-generated neurospheres; assay: Differentiation of primary PDGF-AA-generated neurospheres, immunocytochemistry; format: cell-based, mouse
NSC = assay: FGF2-induced NSC proliferation; format: cell-based; details: 1 μM SU5402
[2] = tested on: PDGF-responsive neural precursors (PRPs) from dissociated E14 MGE/LGE; assay: Primary neurosphere generation from dissociated E14 ganglionic eminences; format: cell-based, mouse
Description: Cell culture. The culture medium (MHM) was composed of DMEM/F-12 (1:1) including HEPES buffer (5 mM), glucose (0.6%), sodium bicarbonate (3 mM), glutamine (2 mM), insulin (25 μg/ml), transferrin (100 μg/ml), progesterone (20 nM), putrescine (10 μM), and sodium selenite (30 nM; all from Sigma, St. Louis, Mo., except glutamine from Invitrogen, Carlsbad, Calif.). The lateral, medial, or both ganglionic eminences (LGE, MGE or both) were removed from Embryonic Day 14 (E14) mouse embryos and mechanically dissociated with a fire-polished Pasteur pipette in MHM. Cells were plated at a density of […] unless otherwise indicated.
For neurosphere generation, PDGF-AA (100 ng/ml; Peprotech, Rocky Hill, N.J.), PDGF-BB (100 ng/ml; Peprotech), EGF (20 ng/ml; Peprotech), FGF2 (20 ng/ml; R&D [Minneapolis, Minn.])+heparan sulfate (2 μg/ml; HS; R&D), SHH (2 ug/ml; R&D), cyclopamine (5 μM; Toronto Research Chemicals, North York, Ontario), and/or DMSO (0.1%; carrier) was added to the MHM. MHM used to generate neurospheres also contained 2% B27 (Invitrogen).
[…] is one of the earliest markers of OLPs, and signaling by PDGF-AA is required for the generation of most oligodendrocytes (Fruttiger et al., Development 126:457 (1999)). Increasing concentrations of PDGF-AA were used to determine whether stimulation of dissociated E14 medial and lateral ganglionic eminences. (MGE and LGE, respectively) results in generation of neurospheres. The neurosphere assay was used because manipulation of primary cells is minimal compared to the immunopanning procedures used to isolate O-2A progenitors.
The effect of brain-derived neurotrophic factor (BDNF), neurotrophin-3 (NT-3), and nerve growth factor (NGF) on PRPs was determined. Cells were cultured as previously reported (Chojnacki et al., J Neurosci 24(48):10888 2004) in the presence of various combinations of PDGF, brain-derived neurotrophic factor (BDNF), NT-3, nerve growth factor (NGF), and the effects on neurosphere generation characterized. MHM is the defined medium used in cultures without growth factor.

dissociated E14 MGEs = assay: Clonality test: GFP and CD1 E14 MGE cells co-cultured 1:1 in PDGF-AA; format: cell-based, mouse; details: 100 ng/ml PDGF-AA, 20,000 cells/ml, GFP:CD1 1:1
Source text: PDGF is also known to have chemotaxic effects on cortical NSCs (Forsberg-Nilsson et al., J Neurosci Res 53:521 (1998)), and thus it was possible that neurospheres generated under PDGF stimulation resulted from the directed migration of NSCs along the culture dish into clumps that resembled clonally-derived neurospheres. This possibility was studied, as previously described (Represa et al., Eur J Neurosci 14:452 (2001)), by culturing dissociated E14 MGEs from CD1 and TgN(GFPU)5Nagy (ubiquitous green fluorescent protein [GFP]-expressing) mice together, 1:1, at 20,000 cells/ml, and in the presence of 100 ng/ml of PDGF-AA. If cell clumping generates the majority of the neurospheres, then most neurospheres should contain both GFP- and non-GFP-expressing cells. However, 95±11% of the neurospheres were not chimeric for GFP expression (p<0.01; Tukey HSD; n=3) (FIGS. 1C-D), and there was no difference in the number of GFP- or non-GFP-expressing neurospheres produced (p>0.65; Tukey HSD; n=3) (FIG. 1D).

[3] = tested on: PRPs (single primary neurospheres); assay: Self-renewal by single sphere dissociation (secondary neurospheres); format: cell-based; details: for secondary neurospheres per single primary PDGF-generated neurosphere: passaged into the named factor(s)
Description: Self-renewal capacity was examined by single sphere dissociation. Briefly, single 6 DIV neurospheres of equivalent size that were generated in the presence of EGF, PDGF-AA, or PDGF-AA and SHH were transferred into 96 well plates and mechanically dissociated. Dissociates were cultured in MHM supplemented with EGF, FGF2 (includes 2 μg/ml HS), FGF2 and SHH, PDGF-AA, PDGF-AA and SHH, PDGF-AA and FGF2, PDGF-AA and FGF2 and SHH, PDGF-AA and DMSO (0.1%), PDGF-AA and SHH, or PDGF-AA and FGF2 and cyclopamine. The number of secondary neurospheres generated was counted after 9 DIV.

PRPs = assay: GFP-expressing PDGF neurosphere dissociates plated on EGF-generated feeder layer; format: cell-based, mouse; details: PDGF with EGF feeder layer
Source text: To determine if extrinsic factors could promote self-renewal of PRPs, individual, 7 DIV, GFP-expressing, PDGF-generated neurospheres were isolated, dissociated in the presence of PDGF-AA, and differentiated on coverslips that had been plated 2 days earlier with or without 0.2×10^6 cells/ml of EGF-generated cells from dissociated primary EGF neurospheres. EGF-generated feeder cells had been allowed to differentiate for 2 days in the presence of 1% FBS. Plates were rinsed 3× with MHM prior to the addition of GFP-expressing, PDGF-generated dissociates. Numbers of adherent clones and cells per clone were assessed by GFP expression. All images were captured with a Photometrics Coolsnap digital camera (Tuscon, Ariz.) mounted on a Leica Microsystems DMIL inverted fluorescence microscope with Coolsnap V1.2.0 software.
However, these studies employed a defined culture media in which some factors required for self-renewal may be missing. To further study PRP self-renewal, primary PDGF neurospheres from the E14 MGEs of TgN(GFPU)5Nagy mice were grown for 7 DIV, individual neurospheres dissociated and transferred from single neurospheres onto poly-L-omithine coated coverslips that had been plated with or without 200,000 primary 7 DIV EGF-generated progeny 2 days earlier.

[4] = 6 DIV neurospheres differentiated 3 DIV

## N[C@@H](Cc1cc(I)c(Oc2ccc(O)c(I)c2)c(I)c1)C(=O)O [T3, triiodothyronine]
[1]; 20 ng/ml T3, 2 DIV, vs 1% FBS
  increase in differentiation of oligodendrocytes (O4): 5 fold
[1]; 2 DIV
  MBP-only clones: increased the number of MBP-only clones
[1]; 2 DIV, vs 1% FBS, BMP-2, and T3 and BMP-2
  MBP-expressing cells produced per clone: significantly increased the number of MBP-expressing cells produced per clone
[1]; [4]
  GFAP-immunoreactive astrocytes per neurosphere: no astrocytes
  MBP-immunoreactive oligodendrocytes per neurosphere: 3.9±0.4

## Cc1c[nH]c(/C=C2\C(=O)Nc3ccccc32)c1CCC(=O)O [SU5402, reference compound]
NSC
  block of FGF2-induced NSC proliferation: 90%
[2]; 1 μM SU5402
  primary PDGF neurosphere formation: unaffected

## PDGF-AA: platelet-derived growth factor AA, 100 ng/ml; Peprotech
Dissociated E14 MGEs
  neurospheres not chimeric for GFP expression: 95±11%
[3]; passaged into PDGF-AA
  secondary neurospheres per single primary EGF-generated neurosphere: 26±5
[3]
  secondary neurospheres per single primary PDGF-generated neurosphere: 1±1
PRPs
  adherent GFP-labeled clones: many clones of GFP-labeled cells that contained greater than 10 cells
[2]; 100 ng/ml PDGF-AA, dissociated E14 MGE and LGE, n=3
  neurospheres produced: 12±1 neurospheres per 10,000 plated cells
[2]; dissociated MGEs, SHH 2 μg/ml, n=8
  number of primary neurospheres generated: 60±9
[2]; increasing concentrations of PDGF-AA
  neurosphere production versus concentration: induced neurosphere production in a dose-dependent manner

## CC1=C2C[C@H]3[C@@H](CC=C4C[C@@H](O)CC[C@@]43C)[C@@H]2CC[C@]12O[C@@H]1C[C@H](C)CN[C@H]1[C@H]2C [cyclopamine, reference compound]
[3]; cyclopamine added to PDGF and FGF2
  secondary neurospheres per primary PDGF-generated neurosphere: 3±1
[2]; 5 μM cyclopamine with 100 ng/ml PDGF-AA
  neurosphere size: smaller
[2]; 5 μM cyclopamine with 100 ng/ml PDGF-AA, MGE 10,000 cells/ml, vs PDGF-AA+DMSO
  reduction in number of PDGF-AA-generated neurospheres: 5 fold
[2]; 5 μM cyclopamine, phase-bright differentiating cells present
  non-specific toxic effect: likely not a result of a non-specific toxic effect

## EGF: epidermal growth factor, 20 ng/ml; Peprotech (NSDSECPLSHDGYCLHDGVCMYIEALDKYACNCVVGYIGERCQYRDLKWWELR; Epidermal growth factor; UniProt P01133 971-1023, looked up)
[3]
  secondary neurospheres per single primary PDGF-generated neurosphere: 3±1

## FGF2: fibroblast growth factor 2, 20 ng/ml, with heparan sulfate 2 μg/ml
[3]
  secondary neurospheres per single primary PDGF-generated neurosphere: 3±1
[3]; primary PDGF-generated neurospheres passaged into the named factor(s)
  secondary neurospheres / self-renewal compared with passage in PDGF: No increase in self-renewal
